The source of these data is patent US10251394B2, “Molecules having pesticidal utility, and intermediates, compositions, and processes, related thereto” (Dow AgroSciences LLC, priority 2016, dated 2019).

Common to all, as to type: in vivo
Assay [1] has as its system Cabbage Looper (Trichoplusia ni). The assay can be described thus: Bioassay on Cabbage Looper (CL), 128-well diet tray assay. Conditions: Cabbage Looper, Table ABC, read-out: CL rating. In outline: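 Mortality after five to seven days at 25° C (14:10 photoperiod), averaged over eight wells per compound. Diet in each well carried 50 μg/cm^2 of dried test molecule and received one to five second-instar larvae.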

Assay [2] concerns Yellow Fever Mosquito (Aedes aegypti). The assay is described as follows: Bioassay on Yellow Fever Mosquito (YFM) larvae, 96-well plate. The conditions noted are these: Table ABC. An outline of the steps: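 About 1-day-old larvae in water with liver powder were added to wells holding compound from a 4000 ppm DMSO master diluted in 90:10 water:acetone. Plates covered and kept at room temperature for 3 days, then each well scored for mortality on a rating scale.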

Assay [3] relates to Beet Armyworm (Spodoptera exigua). The assay can be described thus: Bioassay on Beet Armyworm (BAW), 128-well diet tray assay. Conditions: Beet Armyworm, Table ABC, read-out: BAW rating. An outline of the steps:
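Percent mortality, averaged over eight wells, was scored after five to seven days at 25° C under 14:10 light-dark. Each well's diet carried 50 μg/cm^2 of test molecule applied in acetone-water (90:10) and dried before one to five second-instar larvae were added.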

Regarding `Cc1cc(C(/C=C(\F)c2ccc(C(=O)NC3(C(=O)N(C)CC(F)(F)F)CC3)c(C(F)(F)F)c2)C(F)(F)F)cc(C)c1Cl` (stereo not drawn) [F119, (Z)-4-(3-(4-Chloro-3,5-dimethylphenyl)-1,4,4,4-tetrafluorobut-1-en-1-yl)-N-(1-(methyl(2,2,2-trifluoroethyl)carbamoyl)cyclopropyl)-2-(trifluoromethyl)benzamide], the pest or weed control at 50 µg/cm2 in assay [1] and in assay [3] was 50 to 100% each time. Further, the YFM rating result in assay [2] is on record as “B (More than 0-Less than 80)”.
Take `CN(CC(F)(F)F)C(=O)C1(NC(=O)c2ccc(/C(F)=C/C(c3ccc(Cl)c(Cl)c3)C(F)(F)F)cc2C(F)(F)F)CC1` (stereo not drawn) [F120, (Z)-4-(3-(3,4-Dichlorophenyl)-1,4,4,4-tetrafluorobut-1-en-1-yl)-N-(1-(methyl(2,2,2-trifluoroethyl)carbamoyl)cyclopropyl)-2-(trifluoromethyl)benzamide]: the pest or weed control at 50 µg/cm2 in assay [1] and in assay [3] was 50 to 100% throughout. Further, the YFM rating result in assay [2] is “B (More than 0-Less than 80)”.
In the case of `O=C(CNC(=O)c1ccc(/C(F)=C/C(c2cc(Cl)cc(Br)c2)C(F)(F)F)cc1C(F)(F)F)NCC(F)(F)F` (stereo not drawn) [F122, (Z)-4-(3-(3-Bromo-5-chlorophenyl)-1,4,4,4-tetrafluorobut-1-en-1-yl)-N-(2-oxo-2-((2,2,2-trifluoroethyl)amino)ethyl)-2-(trifluoromethyl)benzamide], the pest or weed control at 50 µg/cm2 in assay [1] and in assay [3] was 50 to 100% each time. For the same compound, in assay [2], the YFM rating result is on record as “B (More than 0-Less than 80)”.
In the case of `CN(CC(F)(F)F)C(=O)C1(NC(=O)c2ccc(/C(F)=C/C(c3ccc(Br)c(Br)c3)C(F)(F)F)cc2C(F)(F)F)CC1` (stereo not drawn) [F130, (Z)-4-(3-(3,4-Dibromophenyl)-1,4,4,4-tetrafluorobut-1-en-1-yl)-N-(1-(methyl(2,2,2-trifluoroethyl)carbamoyl)cyclopropyl)-2-(trifluoromethyl)benzamide], the pest or weed control at 50 µg/cm2 in assay [1] and in assay [3] was 50 to 100% in each case. In assay [2], the YFM rating result is recorded as “A (80-100)”.
In the case of `O=C(NC1(C(=O)NCC(F)(F)F)CC1)c1ccc(/C(F)=C/C(c2ccc(F)c(Cl)c2)C(F)(F)F)cc1C(F)(F)F` (stereo not drawn) [F131, (Z)-4-(3-(3-Chloro-4-fluorophenyl)-1,4,4,4-tetrafluorobut-1-en-1-yl)-N-(1-((2,2,2-trifluoroethyl)carbamoyl)cyclopropyl)-2-(trifluoromethyl)benzamide], the pest or weed control at 50 µg/cm2 in assay [1] and in assay [3] was 50 to 100% each time. Also, the YFM rating result in assay [2] is on record as “A (80-100)”.
As for `C[C@@H](NC(=O)c1ccc(/C(F)=C/C(c2ccc(F)c(Cl)c2)C(F)(F)F)cc1C(F)(F)F)C(=O)NCC(F)(F)F` (stereo partly drawn) [F132, 4-((Z)-3-(3-Chloro-4-fluorophenyl)-1,4,4,4-tetrafluorobut-1-en-1-yl)-N—((R)-1-oxo-1-((2,2,2-trifluoroethyl)amino)propan-2-yl)-2-(trifluoromethyl)benzamide], the pest or weed control at 50 µg/cm2 in assay [1] and in assay [3] was 50 to 100% each time. Also, the YFM rating result in assay [2] is given as “B (More than 0-Less than 80)”.
Turning to `O=C(NC1(C(=O)NCC(F)(F)F)CC1)c1ccc(/C(F)=C/C(c2ccc(Cl)c(F)c2)C(F)(F)F)cc1C(F)(F)F` (stereo not drawn) [F136, (Z)-4-(3-(4-Chloro-3-fluorophenyl)-1,4,4,4-tetrafluorobut-1-en-1-yl)-N-(1-((2,2,2-trifluoroethyl)carbamoyl)cyclopropyl)-2-(trifluoromethyl)benzamide], the pest or weed control at 50 µg/cm2 in assay [1] and in assay [3] was 50 to 100% throughout. The YFM rating result in assay [2] is “B (More than 0-Less than 80)”.
For `CN(CC(F)(F)F)C(=O)CNC(=O)c1ccc(/C(F)=C/C(c2cc(Cl)cc(Br)c2)C(F)(F)F)cc1C(F)(F)F` (stereo not drawn) [F137, (Z)-4-(3-(3-Bromo-5-chlorophenyl)-1,4,4,4-tetrafluorobut-1-en-1-yl)-N-(2-(methyl(2,2,2-trifluoroethyl)amino)-2-oxoethyl)-2-(trifluoromethyl)benzamide], the pest or weed control at 50 µg/cm2 in assay [1] and in assay [3] was 50 to 100% in each case. Moreover, in assay [2], the YFM rating entry is on record as “B (More than 0-Less than 80)”.
As to `C[C@@H](NC(=O)c1ccc(/C(F)=C/C(c2ccc(Cl)c(Br)c2)C(F)(F)F)cc1C(F)(F)F)C(=O)NCC(F)(F)F` (stereo partly drawn) [F138, 4-((Z)-3-(3-Bromo-4-chlorophenyl)-1,4,4,4-tetrafluorobut-1-en-1-yl)-N—((R)-1-oxo-1-((2,2,2-trifluoroethyl)amino)propan-2-yl)-2-(trifluoromethyl)benzamide], the pest or weed control at 50 µg/cm2 in assay [1] and in assay [3] was 50 to 100% each time. Moreover, the YFM rating result in assay [2] is “A (80-100)”.
On to `O=C(NC1(C(=O)NCC(F)(F)F)CC1)c1ccc(/C(F)=C/C(c2ccc(Cl)c(Br)c2)C(F)(F)F)cc1C(F)(F)F` (stereo not drawn) [F139, (Z)-4-(3-(3-Bromo-4-chlorophenyl)-1,4,4,4-tetrafluorobut-1-en-1-yl)-N-(1-((2,2,2-trifluoroethyl)carbamoyl)cyclopropyl)-2-(trifluoromethyl)benzamide], for which the pest or weed control at 50 µg/cm2 in assay [1] and in assay [3] was 50 to 100% throughout. Besides, the YFM rating entry in assay [2] is on record as “A (80-100)”.
In the case of `C[C@@H](NC(=O)c1ccc(/C(F)=C/C(c2ccc(F)c(C(F)(F)F)c2)C(F)(F)F)cc1C(F)(F)F)C(=O)NCC(F)(F)F` (stereo partly drawn) [F141, N—((R)-1-Oxo-1-((2,2,2-trifluoroethyl)amino)propan-2-yl)-4-((Z)-1,4,4,4-tetrafluoro-3-(4-fluoro-3-(trifluoromethyl)phenyl)but-1-en-1-yl)-2-(trifluoromethyl)benzamide], the pest or weed control at 50 µg/cm2 in assay [1] and in assay [3] was 50 to 100% each time. In addition, the YFM rating result in assay [2] is reported as “A (80-100)”.
As to `C[C@@H](NC(=O)c1ccc(/C(F)=C/C(c2cc(Cl)c(C(F)F)c(Cl)c2)C(F)(F)F)cc1C(F)(F)F)C(=O)NCC(F)(F)F` (stereo partly drawn) [F142, 4-((Z)-3-(3,5-Dichloro-4-(difluoromethyl)phenyl)-1,4,4,4-tetrafluorobut-1-en-1-yl)-N—((R)-1-oxo-1-((2,2,2-trifluoroethyl)amino)propan-2-yl)-2-(trifluoromethyl)benzamide], the pest or weed control at 50 µg/cm2 in assay [1] and in assay [3] was 50 to 100% in each case. In assay [2], the YFM rating entry is listed as “A (80-100)”.
For `O=C(N[C@@H]1CON(CC(F)(F)F)C1=O)c1ccc(/C(F)=C/C(c2cc(Cl)c(C(F)F)c(Cl)c2)C(F)(F)F)cc1C(F)(F)F` (stereo partly drawn) [F143, 4-((2)-3-(3,5-Dichloro-4-(difluoromethyl)phenyl)-1,4,4,4-tetrafluorobut-1-en-1-yl)-N—((R)-3-oxo-2-(2,2,2-trifluoroethyl)isoxazolidin-4-yl)-2-(trifluoromethyl)benzamide], the pest or weed control at 50 µg/cm2 in assay [1] and in assay [3] was 50 to 100% throughout. In addition, the YFM rating entry in assay [2] is “A (80-100)”.
Turning to `C/C=C/c1c(Cl)cc(C(/C=C(\F)c2ccc(C(=O)N[C@H](C)C(=O)NCC(F)(F)F)c(C(F)(F)F)c2)C(F)(F)F)cc1Cl` (stereo partly drawn) [F147, 4-((Z)-3-(3,5-Dichloro-4-((E)-prop-1-en-1-yl)phenyl)-1,4,4,4-tetrafluorobut-1-en-1-yl)-N—((R)-1-oxo-1-((2,2,2-trifluoroethyl)amino)propan-2-yl)-2-(trifluoromethyl)benzamide], the pest or weed control at 50 µg/cm2 in assay [1] and in assay [3] was 50 to 100% each time. For the same compound, the YFM rating entry in assay [2] is given as “A (80-100)”.
